Test results: the OligoGym collection
Several values for one entry are separate records, joined by “and”; a condition that tells them apart may be missing. Equal entries are not always repeated. After the bases stand the sugars from the 5' end (letter, count) and the backbone: PS all phosphorothioate, else s phosphorothioate and o phosphodiester by linkage. Methylation of C is not given here. e = 2'-O-(2-methoxyethyl) (MOE); k = constrained ethyl (cEt); d = 2'-deoxy (DNA)

Molecular target: IRF4
Conditions: ASO

Sequence	target mRNA inhibition (MM.1R, 1 µM)	target mRNA inhibition (SK-MEL-28, 4 µM)	also measured
AGTGACTTGCATCCAT (sugars k3 d10 k3, PS)	67% and 58%		target mRNA inhibition (MM.1R, 0.0625 µM): 10%; target mRNA inhibition (MM.1R, 0.25 µM): 28%; target mRNA inhibition (MM.1R, 4 µM): 78%
AGTGACTTGCATCCAT (sugars kkdddddddddekeke, PS)	34%		
AGTGACTTGCATCCAT (sugars kkdddddddddkekek, PS)	27%		
AGTGAGAAAACCCCCC (sugars k3 d10 k3, PS)	8%		
AGTGATGTCAGGTTTT (sugars e1 k2 d9 k2 e2, PS)	39%		
AGTGATGTCAGGTTTT (sugars k3 d9 k3 e1, PS)	65%		target mRNA inhibition (MM.1R, 0.074 µM): 13%; target mRNA inhibition (MM.1R, 0.222 µM): 40%; target mRNA inhibition (MM.1R, 0.666 µM): 64%; target mRNA inhibition (MM.1R, 2 µM): 86%
AGTGATGTCAGGTTTT (sugars kddddddddddkekek, PS)	25%		
AGTGATGTCAGGTTTT (sugars kkdddddddddkekek, PS)	39%		
AGTGATGTCAGGTTTT (sugars kkkdddddddddkeke, PS)	59%		target mRNA inhibition (MM.1R, 0.074 µM): 15%; target mRNA inhibition (MM.1R, 0.222 µM): 36%; target mRNA inhibition (MM.1R, 0.666 µM): 55%; target mRNA inhibition (MM.1R, 2 µM): 79%
AGTGTTCCAGGAGATA (sugars k3 d10 k3, PS)	80% and 72%		target mRNA inhibition (MM.1R, 0.0625 µM): 43%; target mRNA inhibition (MM.1R, 0.25 µM): 59%; target mRNA inhibition (MM.1R, 4 µM): 84%
AGTTAAGTACTTGGAC (sugars k3 d10 k3, PS)		42%	
AGTTCATGTAAAGTCT (sugars k2 d9 e3 k2, PS)	41% and 30%		
AGTTCATGTAAAGTCT (sugars kddddddddddkekek, PS)	25% and 22%		
AGTTCATGTAAAGTCT (sugars kkdddddddddkdkdk, PS)	32% and 47%		
AGTTCATGTAAAGTCT (sugars kkdddddddddkekek, PS)	42% and 31%		
AGTTCATTCCCTAGGT (sugars k3 d10 k3, PS)		44%	
AGTTGTAAATGAGTCG (sugars e1 k2 d9 k2 e2, PS)	49%		
AGTTGTAAATGAGTCG (sugars k3 d9 k3 e1, PS)	87%		target mRNA inhibition (MM.1R, 0.074 µM): 27%; target mRNA inhibition (MM.1R, 0.222 µM): 61%; target mRNA inhibition (MM.1R, 0.666 µM): 80%; target mRNA inhibition (MM.1R, 2 µM): 95%
AGTTGTAAATGAGTCG (sugars kkddddddddddkeke, PS)	59%		target mRNA inhibition (H929, 0.04 µM): 53% and 73%; target mRNA inhibition (KMS11, 0.2 µM): 83% and 91%; target mRNA inhibition (MM.1R, 0.074 µM): 28%; target mRNA inhibition (MM.1R, 0.222 µM): 44%; target mRNA inhibition (MM.1R, 0.666 µM): 65%; target mRNA inhibition (MM.1R, 2 µM): 81%
AGTTGTAAATGAGTCG (sugars kkdddddddddkekek, PS)	56%		target mRNA inhibition (MM.1R, 0.074 µM): 10%; target mRNA inhibition (MM.1R, 0.222 µM): 31%; target mRNA inhibition (MM.1R, 0.666 µM): 47%; target mRNA inhibition (MM.1R, 2 µM): 66%
AGTTGTCTGGCTAGCA (sugars k3 d10 k3, PS)		80%	
AGTTTACACTGGATCT (sugars k3 d10 k3, PS)		70% and 74%	
ATAAACACCTCAGCTG (sugars k3 d10 k3, PS)		21%	
ATAATGTTTCAGTGCT (sugars k3 d10 k3, PS)		76%	

Sequence	target mRNA inhibition (MM.1R, 1 µM)	target mRNA inhibition (SK-MEL-28, 4 µM)	also measured
ATACAAAACGGACTGG (sugars k3 d10 k3, PS)		15%	
ATACATTGAGGCATAC (sugars k3 d10 k3, PS)	2%		
ATACATTTCTTTTACG (sugars k3 d10 k3, PS)		22%	
ATACTTAAGCAAGTGG (sugars k3 d10 k3, PS)		76%	
ATAGAGCCAGAGCAGT (sugars k3 d10 k3, PS)		66%	
ATAGGAAGCACTGGCA (sugars k3 d10 k3, PS)		42%	
ATAGTAAGTTCTAGTC (sugars k3 d10 k3, PS)	11%		
ATAGTGCAATGAAATG (sugars k3 d10 k3, PS)		36%	
ATATAACGGTGTTTCA (sugars k3 d10 k3, PS)		58%	
ATCAAGTAAAGTGATC (sugars k3 d10 k3, PS)		29%	
ATCAATGATGGCAGTC (sugars k3 d10 k3, PS)		57%	
ATCAGAATGGCGAGTT (sugars k3 d10 k3, PS)		47%	
ATCAGATTGAATCCAT (sugars k3 d10 k3, PS)	23%		
ATCAGTCTCAAAAACG (sugars k3 d10 k3, PS)		41%	
ATCCACACCAATGGCA (sugars k3 d10 k3, PS)		34%	
ATCCATGTTGCATGGC (sugars k3 d10 k3, PS)		61%	
ATCCGAAAAGACTGGA (sugars k3 d10 k3, PS)	-20%		
ATCTAATCCACAATCA (sugars k3 d10 k3, PS)		30%	
ATCTGATCCGGACTCT (sugars k3 d10 k3, PS)		9%	
ATCTGTATAGTTCTCA (sugars k3 d10 k3, PS)	55%		
ATCTTAACCTGGAGAA (sugars k3 d10 k3, PS)		28%	
ATGAGGAAGCCGTTCC (sugars k3 d10 k3, PS)		58%	
ATGATAAGGCACTACT (sugars k3 d10 k3, PS)		13%	
ATGCATAACACGGTGT (sugars k3 d10 k3, PS)		45%	

Sequence	target mRNA inhibition (MM.1R, 1 µM)	target mRNA inhibition (SK-MEL-28, 4 µM)	also measured
ATGCATAGTGATGAGA (sugars k3 d10 k3, PS)		45%	
ATGGACATCTGCGGGT (sugars k3 d10 k3, PS)		50%	
ATGGACCACGCAGCCT (sugars k3 d10 k3, PS)		39%	
ATGGATAGTTTCTCAT (sugars k3 d10 k3, PS)		25%	
ATGGTATTTTTCCGTT (sugars k3 d10 k3, PS)	32% and 43%		
ATGTATACATCACTGC (sugars k3 d10 k3, PS)		67%	
ATGTGATAGCTGAGCT (sugars k2 d9 e3 k2, PS)	0%		
ATGTGTATTACTCTTA (sugars kddddddddddkekek, PS)	17% and 4%		
ATGTGTTCTGGTAAAT (sugars k3 d10 k3, PS)	34%		
ATGTTAGCCAATTCCT (sugars k3 d10 k3, PS)	30% and 33%		
ATGTTGCATAGGCATC (sugars k3 d10 k3, PS)	10%		
ATTAAAGAGTGGTACA (sugars k3 d10 k3, PS)		-7%	
ATTAAAGGGTAAGCAC (sugars k3 d10 k3, PS)		32%	
ATTACTAGATTGTAGG (sugars k3 d10 k3, PS)		50%	
ATTACTGCTTGAGGTT (sugars k3 d10 k3, PS)		62%	
ATTATAGAGCATCACT (sugars k3 d10 k3, PS)	-6%		
ATTATATACTGGTTGG (sugars kdddddddddkekeke, PS)	27%		
ATTATATACTGGTTGG (sugars kkdddddddddekeke, PS)	43%		
ATTATATACTGGTTGG (sugars kkdddddddddkdkdk, PS)	28%		
ATTCTTAGAATGCATA (sugars k3 d10 k3, PS)		38%	
ATTCTTAGAATGCATA (sugars k4 d8 k4, PS)		33%	
ATTGAGGCATACAGTG (sugars k3 d10 k3, PS)		30%	
